Assay results reported in patent US20030032793A1, “Gene of PGT of human brain type” (priority 1999, published 2003).

Test system: Rat Cerebral Cortex Neuronal Culture
Test: Apoptosis induction by Amyloid β peptide (Aβ 25-35) in PGT 40/PGT 70-transfected neurons and inhibiting action of PGE 1
Format: cell-based
Conditions: Aβ 25-35 exposure 24 hours
Source text: PGT 40 or PGT 70 cDNA was inserted into pTracer-SV 40 vector (Invitrogen) to construct an expression vector. PGT 40 means the brain-type PGT of the present invention. PGT 70 means the lung-type PGT which was disclosed in the prior art literature.
Fetus of 17 days age (viviparous) was ejected from pregnant rat of SD strain and, in an ice-cold L-15 medium (Invitrogen), cerebral cortex was collected from brain of the fetus. After it was finely cut by scissors, cells were dispersed using a kit for dispersing the neurons (Sumilon), sowed on a polyethyleneimine-coated cover glass (diameter: 12 mm; manufactured by Asahi Technoglass) in a living cell density of 1.6×10^5 cells/cm^2 and cultured (at 37° C. with 5% of CO2). […]
After the cells were fixed (at room temperature for 5 minutes) with a 10% neutral buffered formalin solution, they were stained with 0.01 mg/mL Hoechst 33342 (being dissolved in PBS(−); Molecular Probe) and, under a fluorescent microscope, […] total cell numbers and apoptosis cells (the cells which were aggregated and fragmented by chromatin) were counted in random 20 fields for one example whereupon the apoptosis-positive cell percentage (%) was calculated. […]

| Molecule | action of PGE1 on Aβ-induced apoptosis (PGE 1 0.01, 0.1, 1 and 10 μM added together with Aβ) | effect of PGT expression on anti-apoptosis action of PGE1 (apoptosis-positive cell percentage / apoptosis inhibiting rate) (neurons transfected with PGT expression vector, PGE 1 0.01, 0.1, 1 and 10 μM, Hoechst 33342 staining) |
| --- | --- | --- |
| CCCCC[C@H](O)/C=C/[C@H]1[C@H](O)CC(=O)[C@@H]1CCCCCCC(=O)O [PGE1] | anti-apotosis action | – |
| PGT40: the brain-type PGT (prostaglandin transporter) of the present invention, SEQ ID NO: 3, expressed from pTracer-SV 40 vector | – | accelerate anti-apotosis action of PGE1 |
